Measured values taken from patent US7166694B2, “Vaccine against cancerous diseases which is based on mimotopes of antigens expressed on tumor cells” (priority 2000, dated 2007).
Marks after values point to notes of the source that are not given here.

Tests used:
SKBR3 membranes = experiment: ELISA of control antibody binding to SKBR3 membranes; details: control antibody against CD20
Description: (§1) The wells of a 96-well ELISA plate (Nunc) were coated with membrane fractions of the Her-2/neu overexpressing cell line SKBR3 and as a control for non-specific antibody bonds with membrane fractions of the Her-2/neu negative cell line HTB 132 in PBS overnight.
(§2) The next day, non-specific binding sites were blocked by 3 percent BSA in PBS. Herceptin as well as herceptin after preincubation with relevant and irrelevant phage mimotopes or by mimotopes on KLH as well as on KLH alone were applied to the coated, blocked ELISA plate in a repeated test. […] HRP enters into a color reaction with the substrate. The result of this color reaction can be quantified by photometer. The absorption coefficient of 450/630 nm (OD) is determined.

Her-2/neu = experiment: ELISA inhibition of the binding of herceptin and HER-2/neu (SKBR3 membranes) by mimotopes; details: in comparison to uninhibited herceptin control in ELISA, herceptin preincubated overnight
Description: For the ELISA inhibition assay one tries to prevent this bond by preincubation with mimotopes on phages or KLH as carrier.
as §1, §2

Substance | signal on SKBR3 membranes (SKBR3 membranes) | Inhibition of herceptin binding with phage mimotopes (Her-2/neu)
Rituximab: humanized monoclonal antibody directed against the phosphoprotein surface antigen on lymphocytes, CD20; control antibody | could not produce any signal | 
phage mimotope SEQ ID NO: 9: phage mimotope CHPTLLWPDFC (homo sapiens) |  | 30.2* Percent
